Biological target: Cholesterol esterase (CEase)
Assay: Inhibition of CEase-catalyzed hydrolysis of p-nitrophenylbutyrate (PNPB)
Type: biochemical
Conditions: for Ki: 25.0±0.1 C, pH 7.3, 0.1 M sodium phosphate, 1 mM Triton X100, substrate PNPB, read-out: Ki (inhibition constants for difluoroketone inhibitors of cholesterol esterase)
Protocol: The CEase-catalyzed hydrolysis of the water-soluble substrate p-nitrophenylbutyrate (PNPB) is a reaction that is routinely used to characterize inhibitors. The reaction is followed at 25.0±0.1.C and pH 7.3 in 0.1 M sodium phosphate buffer that contains 0.1 N NaC1 , 1 mM Triton X100, and the appropriate concentrations of CEase and PNPB. Inhibitor characterization occurs in two stages: (a) the form of the inhibition is determined by fitting substrate timecourse data to the integrated form of the Michaelis-Menten equation by nonlinear-least squares methods: [formula] Reactions are run in the absence and presence of inhibitor. Lineweaver-Burk plots of the data are constructed, as shown in FIG. 1 for inhibition by iododifluoromethyl 2-naphthyl ketone. (b) The dissociation constant of the CEase-inhibitor complex, Ki, is determined by one of two methods. In the first (Method A), […] is calculated from a replot of the apparent Km values (determined by fitting timecourses to equation (1)) versus inhibitor concentration. The replot is described by equation 2: [formula] […] In the second approach (Method B), initial velocity (Vi) versus inhibitor concentration data are fit by nonlinear-least squares to equation 3: [formula] […] The apparent Ki is then used to calculate the actual Ki from equation 4:
Ki =Ki^app /(1+[S]/Km) (4)
In equation 4 [S] is the concentration of the substrate PNPB and Km, the Michaelis constant for CEase-catalyzed hydrolysis of PNPB, is 0.09 mM.

Q: How did the Ki turn out when `O=C(c1ccc2ccccc2c1)C(F)(F)Cl` [Compound 1, Chlorodifluoromethyl 2-Naphthyl Ketone] was run?
A: 2000 nM

Q: How did the Ki turn out when `COc1ccc2cc(C(=O)C(F)(F)Cl)ccc2c1` [Compound 2, Chlorodifluoromethyl 2-(6-Methoxy)naphthyl Ketone] was run?
A: 6000 nM

Q: For `CCCCC(F)(F)C(=O)c1ccc2ccccc2c1` [Compound 4, 1,1-Difluoropentyl 2-Naphthyl Ketone], which Ki is on record?
A: 270 nM

Q: How did the Ki turn out when `CCCCC(F)(F)C(=O)c1ccc2cc(OC)ccc2c1` [Compound 5, 1,1-Difluoropentyl 2-(6-Methoxy)naphthyl Ketone] was run?
A: 380 nM

Q: With `O=C(c1ccc2ccccc2c1)C(F)(F)I` [Compound 3, Iododifluoromethyl 2-Naphthyl Ketone] as the molecule, how does the Ki read?
A: 800 nM

Q: For `CCCC(=O)Oc1ccc([N+](=O)[O-])cc1` [PNPB, p-nitrophenylbutyrate, reference compound], which Km (Michaelis constant used in equation 4) is on record?
A: 90 µM

Q: For `CCCCCC(F)(F)C(=O)c1ccc2ccccc2c1` [Compound 6, 1,1-Difluorohexyl 2-Naphthyl Ketone], which Ki is on record?
A: 80 nM

Q: And the “CEase inhibition (in words)” value (summary of Table I Ki values)?
A: most potent inhibitor

Reference: patent publication US5093371A, “Naphthyl ketone inhibitors of cholesterol esterase and their use as hypolipidemic and hypocaloric agents” (University of Iowa Research Foundation, priority 1990, dated 1992)
